Measurements taken from patent publication US6677310B1, “Ring-expanded nucleosides and nucleotides” (Nabi, priority 1999, dated 2004).

Legend:
2.2.15 cells = assay: Toxicity in confluent 2.2.15 cells (neutral red dye uptake); type: cell-based, human; settings: confluent 2.2.15 cells, 9 days, neutral red dye uptake; read-out: CC50
Experimental: Anti-HBV activity and the toxicity against confluent 2.2.15 cells were determined by the previously described procedure (Korba, B. E., et al. Antivir. Res., 19:55-70, 1992; Korba, B. E., et al. Antivir. Res., 15:217-228, 1991). Briefly, confluent cultures of HBV transfected 2.2.15 cells were maintained on either 96-well or 24-well flat-bottomed tissue culture plates in RPMI 1640 medium with 2% fetal bovine serum (FBS). The cells were treated with test compounds daily for nine consecutive days. […] Cellular toxicity against separate cultures of confluent 2.2.15 cells was measured after treatment with the compounds for nine days under identical culture conditions as those used for the antiviral assay (Korba, B. E., et al. Antivir. Res., 19:55-70, 1992). Uptake of neutral red dye by treated cells was compared with dye uptake by untreated control cells (Korba, B. E., et al. Antivir. Res., 19:55-70, 1992).

[1] = system: HBV proteins (HBsAg, HBcAg, HBeAg); assay: HBV protein levels in 2.2.15 cells (semi-quantitative EIA); type: cell-based, Hepatitis B virus; settings: 10 μM, day 9, 2.2.15 cells
HSV-2 = assay: Antiviral test against HSV-2; type: cell-based
Experimental: (§1) These compounds were also tested for their effects on HIV (Weislow, O. , et al., J. Natl. Cancer Inst., 81:577-586, 1989), herpes simplex virus (HSV)-1, HSV-2, cytomegalovirus (CMV), Varicella Zoster virus (VZV) and Epstein-Barr virus (EBV) replication (National Institute of Allergy and Infectious Diseases (NIAID), NIH, Bethesda, Md.).

[2] = system: Varicella Zoster virus (VZV); assay: Antiviral test against VZV; type: cell-based
Experimental: as §1

[3] = system: panel of cancer cell lines; assay: In vitro anti-cancer assay, panel of cancer cell lines (sulforhodamine B); type: cell-based, human; settings: leukemia, non-small cell lung, colon, CNS, melanoma, ovarian, renal, prostate and breast cancer cell lines; read-out: GI50 values, range over the panel
HOP-92 = type: cell-based, human; settings: HOP-92 (Non-Small Cell Lung Cancer), 48 h
COLO 205 = assay: SRB anti-cancer assay, Colon Cancer; type: cell-based, human; settings: COLO 205 (Colon Cancer), 48 h
HCC-2998 = assay: SRB anti-cancer assay, Colon Cancer; type: cell-based, human; settings: HCC-2998 (Colon Cancer), 48 h
HT29 = assay: SRB anti-cancer assay, Colon Cancer; type: cell-based, human; settings: 48 h
KM12 = assay: SRB anti-cancer assay, Colon Cancer; type: cell-based, human; settings: 48 h
SF-295 = assay: SRB anti-cancer assay, CNS Cancer; type: cell-based, human; settings: SF-295 (CNS Cancer), 48 h
U251 = assay: SRB anti-cancer assay, CNS Cancer; type: cell-based, human; settings: 48 h
LOX IMVI = assay: SRB anti-cancer assay, Melanoma; type: cell-based, human; settings: 48 h
MALME-3M = assay: SRB anti-cancer assay, Melanoma; type: cell-based, human; settings: MALME-3M (Melanoma), 48 h
UACC-257 = assay: SRB anti-cancer assay, Melanoma; type: cell-based, human; settings: UACC-257 (Melanoma), 48 h
OVCAR-4 = assay: SRB anti-cancer assay, Ovarian Cancer; type: cell-based, human; settings: OVCAR-4 (Ovarian Cancer), 48 h
A498 = assay: SRB anti-cancer assay, Renal Cancer; type: cell-based, human; settings: 48 h
RXF 393 = assay: SRB anti-cancer assay, Renal Cancer; type: cell-based, human; settings: RXF 393 (Renal Cancer), 48 h
SN12C = assay: SRB anti-cancer assay, Renal Cancer; type: cell-based, human; settings: 48 h
TK-10 = assay: SRB anti-cancer assay, Renal Cancer; type: cell-based, human; settings: TK-10 (Renal Cancer), 48 h
UO-31 = assay: SRB anti-cancer assay, Renal Cancer; type: cell-based, human; settings: UO-31 (Renal Cancer), 48 h
PC-3 = assay: SRB anti-cancer assay, Prostate Cancer; type: cell-based, human; settings: PC-3 (Prostate Cancer), 48 h
MDA-MB-435 = assay: SRB anti-cancer assay, Breast Cancer; type: cell-based, human; settings: MDA-MB-435 (Breast Cancer), 48 h
MDA-N = assay: SRB anti-cancer assay, Breast Cancer; type: cell-based, human; settings: 48 h
[4] = read-out: LC50 (the source's name)

N=c1nc(N)c2ncn([C@@H]3O[C@H](CO)[C@@H](O)[C@H]3O)c2c(N)n1 [Compound 14-2, 4,8-Diamino-6H-6-imino-1-β-D-ribofuranosylimidazo[4,5-e][1,3]diazepine]
CC50 (2.2.15 cells): 501 µM | HBcAg, percentage of control [1]: 109 ± 6% | HBeAg, percentage of control [1]: 8 ± 3 % | HBsAg, percentage of control [1]: 108 ± 18% | antiviral activity against HSV-2 (HSV-2): no antiviral activity | antiviral activity against VZV [2]: no antiviral activity | GI50 [3]: 1 to 10 µM | GI50 (HOP-92): 19.2 µM | TGI (HOP-92): 40 µM | CC50 (HOP-92; [4]): 83.7 µM | GI50 (COLO 205): 21 µM | LC50 (COLO 205): 63.4 µM | TGI (COLO 205): 36.5 µM | GI50 (HCC-2998): 16.4 µM | TGI (HCC-2998): 30.8 µM | CC50 (HCC-2998; [4]): 58 µM | GI50 (HT29): 10.4 µM | TGI (HT29): 35.7 µM | CC50 (HT29; [4]): > 100 µM | GI50 (KM12): 18.6 µM | LC50 (KM12): > 100 µM | TGI (KM12): 59.3 µM | GI50 (SF-295): 24.7 µM | TGI (SF-295): 63.7 µM | CC50 (SF-295; [4]): > 100 µM | GI50 (U251): 20.1 µM | TGI (U251): 45 µM | CC50 (U251; [4]): > 100 µM | GI50 (LOX IMVI): 7.16 µM | TGI (LOX IMVI): 21.3 µM | CC50 (LOX IMVI; [4]): 51.2 µM | GI50 (MALME-3M): 2.2 µM | LC50 (MALME-3M): 25.3 µM | TGI (MALME-3M): 6.79 µM | GI50 (UACC-257): 12.7 µM | TGI (UACC-257): 25.8 µM | CC50 (UACC-257; [4]): 52.3 µM | GI50 (OVCAR-4): 16.7 µM | TGI (OVCAR-4): 35.6 µM | CC50 (OVCAR-4; [4]): 76.1 µM | GI50 (A498): 23.1 µM | TGI (A498): 74.7 µM | CC50 (A498; [4]): > 100 µM | GI50 (RXF 393): 7.51 µM | TGI (RXF 393): 25.6 µM | CC50 (RXF 393; [4]): 74.2 µM | GI50 (SN12C): 14.5 µM | TGI (SN12C): 29.8 µM | CC50 (SN12C; [4]): 61.2 µM | GI50 (TK-10): 15.1 µM | TGI (TK-10): 31.2 µM | CC50 (TK-10; [4]): 64.6 µM | GI50 (UO-31): 13.7 µM | TGI (UO-31): 28.9 µM | CC50 (UO-31; [4]): 61.2 µM | GI50 (PC-3): 16.6 µM | TGI (PC-3): 44.5 µM | CC50 (PC-3; [4]): > 100 µM | GI50 (MDA-MB-435): 12.8 µM | TGI (MDA-MB-435): 29.1 µM | CC50 (MDA-MB-435; [4]): 65.9 µM | GI50 (MDA-N): 12.5 µM | TGI (MDA-N): 26.1 µM | CC50 (MDA-N; [4]): 54.5 µM
